Read-outs that look alike come from different tables or passages of the source.
Assays:
tau construct K19 = tau construct K19 (Homo sapiens, UniProt P10636); experiment: Thioflavine S (ThS) assay for aggregation of tau; format: biochemical
Experimental: Thioflavine S (ThS) Assay for aggregation of tau: 10 μM of the tau construct K19 were incubated with compounds in a concentration range from 1 nM up to 200 μM in the presence of 2.5 μM heparin in 50 mM NH4Ac buffer over night at 37° C. After addition of 20 μM ThS the signal was measured at 521 nm (emission) at an excitation wavelength of 440 nm. The results of this assay are presented in the IC50 column and DC50 column of Table 1 below.

N2a/K18ΔK280 cells = experiment: Tau aggregation and inhibition assay in cells (ThS staining); format: cell-based; conditions: for inhibition at 10 µM: 120 h, read-out: Inhibition in cells; for Inhibition in cells (result in words: cytotoxicity): compound 10 μM
Experimental: Selection of an N2a, Tet-On, G418-resistant cell line: N2a cells were cotransfected with both the pUHD172-1 plasmid (encoding the rtTA, obtained from H. Bujard, Heidelberg) and pEU-1 plasmid (encoding G418 resistance, a derivative of pRc/CMV, Invitrogen) (ratio 20:1; 1 μg/well of 6-well plates) using the DOTAP transfection reagent (Roche, Basel, CH). The cells were cultured in Eagle's Minimum Essential Medium (MEM) supplemented with 10% defined fetal bovine serum and subjected to G418 (600 μg/ml) and selection. The cells were fed with fresh media every 4 days for 3-4 weeks when single colonies appeared. Clones were tested for the induction level by transient transfection of pUHG 16-3 plasmid and the induction of β-galactosidase was measured.
Generation of inducible Tet-On cell lines: The DNA fragments encoding the appropriate tau constructs (K18WT, K18ΔK280, K18/ΔK280/PP) were inserted into the bidirectional vector pBI-5 between ClaI and SalI restriction sites (pBI-5 is an unpublished derivative of pBI-2, Baron et al., 1995). The pBI-5/K18-derived plasmids with pX343 (plasmid encoding the hygromycin resistance) were used for cotransfection of N2a/Tet-On, G418-resistant cells with the aid of DOTAP (20:1 plasmid ratio; 1 μg/well of 6-well plates). The cells were seeded at 4×10^5 cells per well. On the following day cells were transferred to 100-mm dishes and selected with 100 μg/ml of hygromycin and 600 μg/ml of G418. Clonal cell lines were screened for the inducible expression of K18 derivatives by measuring luciferase activity with the luciferase assay and immunofluorescence for tau protein with the polyclonal pan-tau antibody K9JA.
Induction of K18-derivatives in Tet-On N2a cells: The inducible N2a/K18-derivatives cells were cultured in MEM medium supplemented with 10% fetal calf serum, 2 mM glutamine and 0.1% nonessential amino acids. The expression of K18 constructs was induced by adding 1 μg doxycyclin (Dox) per 1 ml medium. The induction was continued for 7-11 days, the medium was changed 3 times (always complemented with doxycyclin). For tau solubility assays the cells were collected by pelleting during centrifugation at 1000×g for 5 min. The levels and solubility of tau K18/ΔK280 were determined following Greenberg and Davies (1990). The cells were homogenized (DIAX900, Heidolph, Schwabach, Germany) in 10 vol (w/v) of buffer consisting of 10 mM Tris-HCl (pH 7.4), 0.8 M NaCl, 1 mM EGTA, and 10% sucrose. The homogenate was spun for 20 min at 20000×g, and the supernatant was retained. The pellet was re-homogenized in 5 vol of homogenization buffer and re-centrifuged. Both supernatants were combined, brought to 1% N-laurylsarkosinate (w/v) and incubated for 1 hr at room temperature while shaking, followed by centrifugation at 100 000×g for 1 hr. The sarkosyl-insoluble pellets were resuspended in 50 mM Tris-HCl (pH 7.4), 0.5 ml per 1 g of starting material. The supernatant and sarkosyl-insoluble pellet samples were analyzed by Western blotting. The amount of material loaded for supernatant and sarkosyl-insoluble pellet represented about 0.5% and 15% of the total material present in the supernatant and pellet respectively (the ratio between supernatant and sarkosyl insoluble pellet was always 1:30). For quantification of tau levels in each fraction, the Western blots were probed with pan-tau antibody K9JA and analyzed by densitometry (LAS 3000 and AIDA software, Raytest, Straubenhardt, Germany).
Quantitation of tau aggregation in cells by Thioflavin S (ThS) staining: Tet-On inducible undifferentiated N2a cells were treated with 1 μg/ml doxycyclin for 5, 7 or 9 days in a culture dish. After that the cells were trypsinized and transferred to coverslips and incubated overnight. The cells on the coverslips were fixed with 4% paraformaldehyde in PBS for 15 min, then permeabilized with 80% MeOH for 6 min at −20° C., and incubated with 0.1% Thioflavin S for 5 min and washed three times in ethanol (50%). […]

uninduced N2A cells = format: cell-based; conditions: cell death as percent of LDH released into medium vs total LDH, compound 10 μM
Experimental: Neurotoxicity assay: Neurotoxicity was assessed using an LDH (lactate dehydrogenase) assay kit (Roche, Mannheim, Germany) according to the manufacturer's specifications. In the viability assay the aggregation inhibitor compound was added at a final concentration of 10 μM to uninduced N2A cells. The activity of LDH was measured spectrophotometrically at 492 nm. Cell death was calculated as percent of LDH released into medium, compared to total LDH obtained after total cell lysis.

tau construct K18 = tau construct K18 (Homo sapiens, UniProt P10636); experiment: STD-NMR determination of dissociation constant; format: binding; conditions: STD-NMR titration data for proton I, 10 μM soluble K18, PBS/D2O, 295 K; read-out: KD of K18-BSc3094 complex
Sequence of tau construct K18 (P10636 with tags, fused parts or gaps isoform P10636-8 limits assumed): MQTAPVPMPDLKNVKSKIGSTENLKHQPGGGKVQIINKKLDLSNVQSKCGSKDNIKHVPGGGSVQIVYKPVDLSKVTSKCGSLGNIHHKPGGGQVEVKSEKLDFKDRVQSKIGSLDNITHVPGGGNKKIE
Experimental: STD-NMR: All STD NMR experiments were made in 3 mm Match® tubes in a 700 MHz spectrometer with cryogenic probe head at 295 K. The quantity of protein was kept small by the small diameter of the sample tubes. The spectra were measured with a spectral width of 11.0208 ppm and 32k data points with application of the WATERGATE water suppression (w5-sequence). The suppression of the protein resonances was reached by a spin lock pulse with a length of 15 ms and a attenuation of 11 dB. We used a pulse program in which the presaturation was accomplished alternating after each scan for the on and off resonance experiment at the selected frequencies. Thus artefacts are prevented during the difference formation due to in homogeneities. As point of irradiation for the on resonance experiments we selected 540 Hz (0.77 ppm). As point of irradiating for the off resonance experiments 40,000 Hz (57.1 ppm) was selected. The saturation duration in all experiments was 4 seconds, the attenuation of the saturation power 45 dB. 2044 scans were collected per experiment. After phase correction the FID was multiplied by an exponential function to improve the signal to noise ratio, which caused a line broadening of 1 Hz.
For the determination of the dissociation constant a sample with 10 μM soluble K18 and 80 μM DTT-d6 in 200 μL PBS/D2O was prepared. […]

[1] = 10 μM tau construct K19, 2.5 μM heparin, ThS fluorescence, read-out: DC50
[2] = 10 μM tau construct K19, 2.5 μM heparin, over night at 37° C., ThS fluorescence, read-out: ID50 (the source's name)
[3] = N2a/K18ΔK280 cells, compound 10 μM with doxycyclin, 5 days, ThS-positive cells scored
[4] = 10 μM tau construct K19, 2.5 μM heparin, ThS fluorescence

Sequence of tau construct K19 (P10636 with tags, fused parts or gaps isoform P10636-2 limits assumed): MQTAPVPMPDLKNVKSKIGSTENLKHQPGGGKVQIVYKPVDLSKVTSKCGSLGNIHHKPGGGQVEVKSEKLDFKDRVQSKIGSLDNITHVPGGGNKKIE

Compound	DC50 (tau construct K19; [1])	IC50 (tau construct K19; [2])	Kd (tau construct K18)	inhibition at 10 µM (N2a/K18ΔK280 cells; [3])	LDH (uninduced N2A cells)	IC50 (tau construct K19)	DC50 (tau construct K19; [4])	inhibition at 10 µM (N2a/K18ΔK280 cells)	Inhibition in cells (result in words: cytotoxicity) (N2a/K18ΔK280 cells; N2a/K18ΔK280 cells, 5 days)
CC(C)COc1ccc(-c2csc(NNC(=O)c3cc4ccccc4[nH]3)n2)cc1 [Comp. 56, N′-[4-(4-isobutyloxyphenyl)-1,3-thiazol-2-yl]-1H-indole-2-carbohydrazide]					−0.6%	111 µM	> 200 µM	50.8%	
O=C(NNc1nc(-c2ccc(Cl)cc2)cs1)c1cc2ccccc2[nH]1 [Comp. 55, N′-[4-(4-chlorophenyl)-1,3-thiazol-2-yl]-1H-indole-2-carbohydrazide]					−1.1%	88.9 µM	105 µM	54%	
O=C(NNc1nc(-c2ccc3ccccc3c2)cs1)c1cc2ccccc2[nH]1 [Comp. 59, N′-[4-(2-naphthyl)-1,3-thiazol-2-yl]-1H-indole-2-carbohydrazide]					1.9%	130 µM	138 µM		Cytotoxic at 5 d
Cc1nc(NNC(=O)c2ccc3[nH]cnc3c2)sc1-c1ccc(Br)cc1 [Comp. 62, N′-[5-(4-bromophenyl)-4-methyl-1,3-thiazol-2-yl]-1H-benzimidazole-5-carbohydrazide]	38.1 µM	33.5 µM			−2.8%			68.3%	
Cc1nc(NNC(=O)c2ccc(F)cc2)sc1-c1ccc(Br)cc1 [Comp. 63, N′-[5-(4-bromophenyl)-4-methyl-1,3-thiazol-2-yl]-4-fluorobenzohydrazide]	15.9 µM	13.6 µM			1.2%			50%	
O=C(NNc1nc(-c2ccc([N+](=O)[O-])cc2)cs1)c1ccc2c(c1)OCO2 [Comp. 13, N′-[4-(4-nitrophenyl)-1,3-thiazol-2-yl]-1,3-benzodioxole-5-carbohydrazide]	0.7 µM	3.9 µM			9.3%			66.1%	
O=C(NNc1nc(-c2ccc(-c3ccccc3)cc2)cs1)c1cc2ccccc2[nH]1 [Comp. 58, N′-[4-(1,1′-biphenyl-4-yl)-1,3-thiazol-2-yl]-1H-indole-2-carbohydrazide]					54.5%	98.9 µM	> 200 µM		Cytotoxic at 5 d
O=C(NNc1nc(-c2ccccc2Br)cs1)c1cc2ccccc2[nH]1 [Comp. 60, N′-[4-(2-bromophenyl)-1,3-thiazol-2-yl]-1H-indole-2-carbohydrazide]					0.1%	> 200 µM	> 200 µM	41.5%	

More lines, main results first:

DC50 (tau construct K19; [1])	IC50 (tau construct K19; [2])	Kd (tau construct K18)	Compound	inhibition at 10 µM (N2a/K18ΔK280 cells; [3])	LDH (uninduced N2A cells)	IC50 (tau construct K19)	DC50 (tau construct K19; [4])	inhibition at 10 µM (N2a/K18ΔK280 cells)	Inhibition in cells (result in words: cytotoxicity) (N2a/K18ΔK280 cells; N2a/K18ΔK280 cells, 5 days)
0.7 µM	1.6 µM	62 ± 12 µM	O=C(NNc1nc(-c2ccc([N+](=O)[O-])cc2)cs1)c1ccc2[nH]cnc2c1 [Comp. 8, N′-[4-(4-Nitrophenyl)-1,3-thiazol-2-yl]-1H-benzimidazole-5-carbohydrazide]	82.2%	5.2%				
28.7 µM	19.7 µM		N#Cc1ccc(-c2csc(NNC(=O)c3cccc(F)c3)n2)cc1 [Comp. 67, N′-[4-(4-cyanophenyl)-1,3-thiazol-2-yl]-3-fluorobenzohydrazide]		19.8%				Cytotoxic at 5 d
2.7 µM	4.1 µM		O=C(NNc1nc2c(s1)Cc1ccccc1-2)c1ccc(C(F)(F)F)cc1 [Comp. 66, N′-8H-indeno[1,2-d][1,3]thiazol-2-yl-4-(trifluoromethyl)benzohydrazide]	53.9%	−4.6%				
162 µM	69.1 µM		O=C(NNc1nc(-c2ccc(Cl)cc2)cs1)C1CCCCC1 [Comp. 68, N′-[4-(4-chlorophenyl)-1,3-thiazol-2-yl]cyclohexanecarbohydrazide]	46.4%	−2.8%				
1.2 µM	1.3 µM		O=C(NNc1nc(-c2ccc([N+](=O)[O-])cc2)cs1)c1ccc(-c2ccccc2)cc1 [Comp. 7, N′-[4-(4-nitrophenyl)-1,3-thiazol-2-yl]-1,1′-biphenyl-4-carbohydrazide]	69.7%	5.0%				
> 200 µM	> 200 µM		COc1ccc(-c2csc(NNC(=O)N3CCCCC3)n2)cc1 [Comp. 49, N′-[4-(4-methoxyphenyl)-1,3-thiazol-2-yl]piperidine-1-carbohydrazide]		−3.9%				Cytotoxic at 5 d
13.6 µM	9.8 µM		Cc1sc(NNC(=O)c2ccc(-c3ccccc3)cc2)nc1-c1ccc([N+](=O)[O-])cc1 [Comp. 61, N′-[5-methyl-4-(4-nitrophenyl)-1,3-thiazol-2-yl]-1,1′-biphenyl-4-carbohydrazide]	62.6%	16.6%				
1 µM	1.9 µM		O=C(NNc1nc(-c2ccc(N3CCCC3)cc2)cs1)c1ccc(-c2ccccc2)cc1 [Comp. 9, N′-[4-(4-pyrrolidin-1-ylphenyl)-1,3-thiazol-2-yl]-1,1′-biphenyl-4-carbohydrazide]	60.5%	6.2%				
